Measured values taken from US9351965B2, “Indazole derivatives useful as ERK inhibitors” (Merck Sharp & Dohme Corp., priority 2010, dated 2016).

target: fully phosphorylated, active Mouse ERK2 protein (Mus musculus (Mouse), UniProt P63085); assay: Active ERK2 (aERK) IMAP assay; assay type: biochemical; conditions: IMAP fluorescence polarization; 30 μM ATP; 30 minute pre-incubation
Sequence (P63085 whole entry): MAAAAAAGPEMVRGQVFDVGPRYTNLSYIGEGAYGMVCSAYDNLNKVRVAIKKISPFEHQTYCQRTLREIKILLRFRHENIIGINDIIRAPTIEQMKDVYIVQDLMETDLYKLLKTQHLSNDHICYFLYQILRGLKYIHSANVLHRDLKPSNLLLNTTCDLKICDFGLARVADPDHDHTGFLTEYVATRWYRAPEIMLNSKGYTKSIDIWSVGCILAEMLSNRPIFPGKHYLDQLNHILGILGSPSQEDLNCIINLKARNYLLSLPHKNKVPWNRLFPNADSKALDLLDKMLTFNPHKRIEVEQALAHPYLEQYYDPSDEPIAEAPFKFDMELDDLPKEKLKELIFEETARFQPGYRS

| Compound | IC50 [µM] |
| --- | --- |
| Cc1cc(-c2n[nH]c3ccc(C(=O)N[C@@H]4CCC[C@@](O)(Cn5ncc6ccccc65)C4)cc23)ccn1 [compound 66, N-[3(S)-hydroxy-3-(1H-indazol-1-ylmethyl)-1(R)-cyclohexyl]-3-(2-methyl-4-pyridinyl)-1H-indazole-5-carboxamide] | 0.007 |
| Cc1cc(-c2n[nH]c3ccc(C(=O)N[C@@H]4CCC[C@@](O)(Cn5c(C(F)(F)F)nc6ccccc65)C4)cc23)ccn1 [compound 68] | 0.821 |
| Cc1cc(-c2n[nH]c3ccc(C(=O)N[C@H]4CCC[C@@](O)(Cn5c(C)nc6ccccc65)C4)cc23)ccn1 [compound 69, N-[trans-3-hydroxy-3-[(2-methyl-1H-benzimidazol-1-yl)methyl]cyclohexyl]-3-(2-methyl-4-pyridinyl)-H-indazole-5-carboxamide] | 0.053 |
| Cc1cc(-c2n[nH]c3ccc(C(=O)N[C@H]4CCC[C@](O)(Cn5c(C)nc6ccccc65)C4)cc23)ccn1 [compound 70] | 0.332 |
| O=C(N[C@@H]1CCC[C@@](O)(Cn2ncc3ncccc32)C1)c1ccc2[nH]nc(-c3ccc4nccn4c3)c2c1 [compound 86, N-[cis-3-hydroxy-3-(1H-pyrazolo[4,3-b]pyridN-1-ylmethyl)cyclohexyl]-3-imidazo[1,2-a]pyridiN-6-yl-1H-indazole-5-carboxamide] | 1 |
| Cn1cc2cc(-c3n[nH]c4ccc(C(=O)NC5CCCC(Cn6ccnc6)C5)cc34)ccc2n1 (stereo not shown) [compound 108, N-[3-(1H-imidazol-1-ylmethyl)cyclohexyl]-3-(2-methyl-2H-indazol-5-yl)-1H-indazole-5-carboxamide] | 0.0293 |
| Cn1cc2cc(-c3n[nH]c4ccc(C(=O)NC5CCCC(Cn6cnc7ccccc76)C5)cc34)ccc2n1 (stereo not shown) [compound 109, N-[3-(1H-benzimidazol-1-ylmethyl)cyclohexyl]-3-(2-methyl-2H-indazol-5-yl)-1H-indazole-5-carboxamide] | 0.0211 |
| O=C(NC1CCCC(Cn2cccn2)C1)c1ccc2[nH]nc(-c3ccc4nccn4c3)c2c1 (stereo not shown) [compound 110, 3-imidazo[1,2-a]pyridin-6-yl-N-[3-(1H-pyrazol-1-ylmethyl)cyclohexyl]-1H-indazole-5-carboxamide] | 0.0746 |
| O=C(NC1CCCC(Cn2cncn2)C1)c1ccc2[nH]nc(-c3ccc4nccn4c3)c2c1 (stereo not shown) [compound 111, 3-imidazo[1,2-a]pyridin-6-yl-N-[3-(1H-1,2,4-triazol-1-ylmethyl)cyclohexyl]-1H-indazole-5-carboxamide] | 0.0772 |
| Cc1nc2ccc(-c3n[nH]c4ccc(C(=O)NC5CCCC(Cn6cc(C#N)c7ccccc76)C5)cc34)cc2s1 (stereo not shown) [compound 112, N-[3-[(3-cyano-1H-indol-1-yl)methyl]cyclohexyl]-3-(2-methyl-6-benzothiazolyl)-1H-indazole-5-carboxamide] | 1 |
| Cc1cc(-c2n[nH]c3ccc(C(=O)NC4CCCC(Cn5cc6cccnc6n5)C4)cc23)ccn1 (stereo not shown) [compound 113, 3-(2-methyl-4-pyridinyl)-N-[3-(2H-pyrazolo[3,4-b]pyridin-2-ylmethyl)cyclohexyl]-1H-indazole-5-carboxamide] | 0.164 |
| Cc1cc(-c2n[nH]c3ccc(C(=O)NC4CCCC(Cn5ncc6cccnc65)C4)cc23)ccn1 (stereo not shown) [compound 114, 3-(2-methyl-4-pyridinyl)-N-[3-(1H-pyrazolo[3,4-b]pyridin-1-ylmethyl)cyclohexyl]-1H-indazole-5-carboxamide] | 0.0154 |
| Cc1cc(-c2n[nH]c3ccc(C(=O)NC4CCCC(Cn5ncc6ccncc65)C4)cc23)ccn1 (stereo not shown) [compound 115, 3-(2-methyl-4-pyridinyl)-N-[3-(1H-pyrazolo[3,4-c]pyridin-1-ylmethyl)cyclohexyl]-1H-indazole-5-carboxamide] | 0.0338 |
| Cc1cc(-c2n[nH]c3ccc(C(=O)NC4CCCC(Cn5c(C)nc6cnccc65)C4)cc23)ccn1 (stereo not shown) [compound 116, N-[3-[(2-methyl-1H-imidazo[4,5-c]pyridiN-1-yl)methyl]cyclohexyl]-3-(2-methyl-4-pyridinyl)-1H-indazole-5-carboxamide] | 1 |
| Cc1cc(-c2n[nH]c3ccc(C(=O)NC4CCCC(Cn5cnc6ncccc65)C4)cc23)ccn1 (stereo not shown) [compound 117, N-[3-(1H-imidazo[4,5-b]pyridin-1-ylmethyl)cyclohexyl]-3-(2-methyl-4-pyridinyl)-1H-indazole-5-carboxamide] | 0.0865 |
| Cc1cc(-c2n[nH]c3ccc(C(=O)NC4CCCC(Cn5cnc6cccnc65)C4)cc23)ccn1 (stereo not shown) [compound 118, N-[3-(3H-imidazo[4,5-b]pyridin-3-ylmethyl)cyclohexyl]-3-(2-methyl-4-pyridinyl)-1H-indazole-5-carboxamide] | 0.0608 |
| Cc1cc(-c2n[nH]c3ccc(C(=O)NC4CCCC(Cn5ncc6cnccc65)C4)cc23)ccn1 (stereo not shown) [compound 119, 3-(2-methyl-4-pyridinyl)-N-[3-(1H-pyrazolo[4,3-c]pyridin-1-ylmethyl)cyclohexyl]-1H-indazole-5-carboxamide] | 0.53 |
| Cc1cc(-c2n[nH]c3ccc(C(=O)NC4CCCC(CN5C(=O)Cc6ccccc65)C4)cc23)ccn1 (stereo not shown) [compound 120, N-[3-[(2,3-dihydro-2-oxo-1H-indol-1-yl)methyl]cyclohexyl]-3-(2-methyl-4-pyridinyl)-1H-indazole-5-carboxamide] | 0.0174 |
| Cc1cc(-c2n[nH]c3ccc(C(=O)NC4CCCC(Cn5c(=O)ccc6ccccc65)C4)cc23)ccn1 (stereo not shown) [compound 121, 3-(2-methyl-4-pyridinyl)-N-[3-[(2-oxo-1(2h)-quinolinyl)methyl]cyclohexyl]-1H-indazole-5-carboxamide] | 0.0372 |
| Cc1cc(-c2n[nH]c3ccc(C(=O)NC4CCCC(Cn5cc6ccccc6n5)C4)cc23)ccn1 (stereo not shown) [compound 122, N-[3-(2H-indazol-2-ylmethyl)cyclohexyl]-3-(2-methyl-4-pyridinyl)-1H-indazole-5-carboxamide] | 0.0143 |
| Cc1cc(-c2n[nH]c3ccc(C(=O)NC4CCCC(Cn5ncc6ccccc65)C4)cc23)ccn1 (stereo not shown) [compound 123, N-[3-(1H-indazol-1-ylmethyl)cyclohexyl]-3-(2-methyl-4-pyridinyl)-1H-indazole-5-carboxamide] | 0.0107 |
| Cc1nc2ccc(-c3n[nH]c4ccc(C(=O)NC5CCCC(Cn6c(C)nc7ccccc76)C5)cc34)cc2s1 (stereo not shown) [compound 127, N-[3-[(2-methyl-1H-benzimidazol-1-yl)methyl]cyclohexyl]-3-(2-methyl-6-benzothiazolyl)-1H-indazole-5-carboxamide] | 1 |
| Cc1cc(-c2n[nH]c3ccc(C(=O)NC4CCCC(CO)(Cc5c(F)cccc5F)C4)cc23)ccn1 (stereo not shown) [compound 129, N-[3-[(2,6-difluorophenyl)methyl]-3-(hydroxymethyl)cyclohexyl]-3-(2-methyl-4-pyridinyl)-1H-indazole-5-carboxamide] | 0.636 |
| Cc1cc(-c2n[nH]c3ccc(C(=O)NC4CCCC(CO)(Cc5ccccc5)C4)cc23)ccn1 (stereo not shown) [compound 132, N-[3-(hydroxymethyl)-3-(phenylmethyl)cyclohexyl]-3-(2-methyl-4-pyridinyl)-1H-indazole-5-carboxamide] | 0.223 |
| Cc1cc(-c2n[nH]c3ccc(C(=O)NC4CCCC(CO)(Cc5ccccc5F)C4)cc23)ccn1 (stereo not shown) [compound 133, N-[3-[(2-fluorophenyl)methyl]-3-(hydroxymethyl)cyclohexyl]-3-(2-methyl-4-pyridinyl)-1H-indazole-5-carboxamide] | 0.109 |
